Columns and labels:
HPK1 = HPK1 (Homo sapiens, UniProt Q92918); experiment: HPK1 kinase activity inhibition test (ADP-Glo, luminescence); format: biochemical; conditions: 2 μM ATP, 5 nM HPK1, read-out: IC50, inhibitory effects on HPK1 kinase activity
Procedure, shortened: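 Autophosphorylation assay without added substrate: HPK1 preincubated with compound 10 min at 25 °C, then ATP added for 60 min at 25 °C; final DMSO 0.5%. ADP measured by ADP-Glo luminescence; IC50 from four-parameter nonlinear fit.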

Human Jurkat-E6-1 cells = experiment: Detection of IL-2 production by Jurkat cells using ELISA; format: cell-based; conditions: anti-CD3/anti-CD28 stimulation 24 hours, tested compound 1.0 μM, read-out: Percentage of the amount of IL-2 secreted by compound treated vs DMSO-treated cells
Procedure, shortened: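 Jurkat E6-1 cells were pre-incubated with compound for 30 min at 37 °C, then stimulated 24 h on plate-bound anti-CD3 plus soluble anti-CD28. Secreted IL-2 in supernatant was measured by sandwich ELISA (450 nm) against a standard curve and expressed as % of DMSO-treated cells.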

KDR = KDR (Homo sapiens, UniProt P35968); experiment: KDR kinase activity inhibition test (HTRF); format: biochemical; conditions: read-out: IC50, inhibitory effects on KDR kinase activity
KDR, sequence (P35968 20-1356): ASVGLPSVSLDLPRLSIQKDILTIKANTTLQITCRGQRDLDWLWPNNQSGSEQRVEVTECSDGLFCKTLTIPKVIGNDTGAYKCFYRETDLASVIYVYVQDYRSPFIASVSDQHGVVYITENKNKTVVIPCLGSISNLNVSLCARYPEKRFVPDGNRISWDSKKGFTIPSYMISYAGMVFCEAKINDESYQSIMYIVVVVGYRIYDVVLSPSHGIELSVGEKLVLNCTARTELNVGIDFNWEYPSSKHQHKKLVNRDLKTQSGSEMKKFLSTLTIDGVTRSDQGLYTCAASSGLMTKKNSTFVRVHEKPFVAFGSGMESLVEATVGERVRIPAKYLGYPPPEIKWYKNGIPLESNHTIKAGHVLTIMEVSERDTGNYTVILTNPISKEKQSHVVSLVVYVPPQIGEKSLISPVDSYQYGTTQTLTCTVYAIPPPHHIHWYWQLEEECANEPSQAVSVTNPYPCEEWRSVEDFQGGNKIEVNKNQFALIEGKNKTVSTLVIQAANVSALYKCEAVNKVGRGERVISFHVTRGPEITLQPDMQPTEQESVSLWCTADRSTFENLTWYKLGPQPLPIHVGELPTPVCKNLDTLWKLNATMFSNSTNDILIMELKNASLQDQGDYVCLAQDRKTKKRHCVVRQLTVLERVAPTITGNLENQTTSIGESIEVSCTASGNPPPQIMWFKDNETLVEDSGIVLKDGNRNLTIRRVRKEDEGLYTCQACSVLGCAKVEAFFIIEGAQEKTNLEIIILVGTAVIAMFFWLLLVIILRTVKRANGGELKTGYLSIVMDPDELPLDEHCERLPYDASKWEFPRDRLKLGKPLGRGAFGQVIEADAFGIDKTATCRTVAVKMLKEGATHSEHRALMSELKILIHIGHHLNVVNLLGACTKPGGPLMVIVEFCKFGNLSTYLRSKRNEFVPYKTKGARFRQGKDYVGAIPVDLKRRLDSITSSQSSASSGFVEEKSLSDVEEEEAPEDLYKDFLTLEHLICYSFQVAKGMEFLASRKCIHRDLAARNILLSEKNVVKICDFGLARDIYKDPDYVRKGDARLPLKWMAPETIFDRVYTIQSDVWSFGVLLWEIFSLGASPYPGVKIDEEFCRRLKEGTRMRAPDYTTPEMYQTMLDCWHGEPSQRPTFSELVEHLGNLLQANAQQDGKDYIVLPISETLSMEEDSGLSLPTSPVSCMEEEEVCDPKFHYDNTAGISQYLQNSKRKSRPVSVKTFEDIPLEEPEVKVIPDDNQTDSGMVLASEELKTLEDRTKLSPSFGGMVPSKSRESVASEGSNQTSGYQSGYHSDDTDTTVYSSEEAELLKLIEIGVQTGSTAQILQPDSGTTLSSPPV
Description: Tested compounds: compounds prepared in the Examples of this invention.
Prepare compound stock solution: dissolve the test compound in 100% DMSO to make a 10 mM stock solution. Dilute the stock solution of the test compound by 5 times with 100% DMSO, make a 4-fold equal dilution in a 96-well dilution plate, add 1 μL of the compound to 39 μL of kinase reaction buffer (1×kinase buffer, 5 mM MgCl2, 1 mM DTT), and shake on a microplate shaker for 20 minutes. 4×Positive control (4 μL of positive compound solution of the starting concentration, add 196 μL of kinase buffer) and 4×negative control (4 μL of 100% DMSO, add 196 μL of kinase buffer).
(1) Use 1×kinase reaction buffer to prepare 2.5×KDR kinase solution (250 μM), transfer 2 μL of the kinase solution to the 384 reaction plate, and add 1 μL of the test compound solution of gradient concentration to the 384 reaction plate (Greiner, Cat #784075), centrifuge for 1 minute (1000 rpm), and incubate at 25° C. for 10 minutes.
(2) Use 1×kinase reaction buffer to prepare 2.5×TK-substrate-biotin (2.5 μM) and 2.5×ATP (2.5 μM), mix well, and add 2 μL of the TK-substrate-biotin/ATP solution to the 384 reaction plate, centrifuge for 30 seconds (1000 rpm), and incubate at 25° C. for 40 minutes.
(3) Use HTRF detection buffer to prepare 2×Sa-XL 665 (125 nM) and 1×TK-antibody-Cryptate. Add 5 μL of a mixture of Sa-XL 665 and TK-antibody-Cryptate solutions to each well, centrifuge for 30 seconds (1000 rpm), and react at room temperature for 1 hour.
(4) The fluorescence signal is read using a Biotek multi-function plate reader, and the IC50 (half inhibitory concentration) of the compound is obtained using a four-coefficient nonlinear fitting formula.

MV-4-11 cells = experiment: Detection of MV-4-11 cell activity (CellTiter-Glo); format: cell-based; conditions: Homo sapiens, MV4-11, 120 h, 5 days, CTG, read-out: IC50, inhibitory effects on MV-4-11 cell activity
Description: The CellTiter-Glo (CTG) luminescence method was used to detect the effect of compounds on the activity of MV-4-11 cells.
Tested compounds: compound prepared in the Examples of the present invention.
Add 100 μL containing 20,000 MV-4-11 (human myeloid monocytic leukemia cells, from the Cell Bank of the Chinese Academy of Sciences, Cat. No. SCSP-5031) cell suspension to 96-well flat-bottom clear-bottomed cell plates (Corning, Cat #3603), and then add 100 μL of cell culture medium containing a series of concentrations of the compound to be tested, with a total volume of 200 μL per well. The final gradient concentrations of the compounds were 500 nM, 125 nM, 31.25 nM, 7.813 nM, 1.953 nM, 0.488 nM, 0.122 nM, 0.031 nM, and 0.008 nM, and the final DMSO content was 0.5%. Set cells with the cell culture medium containing 0.5% DMSO but without compounds as the 100% control; set the culture medium wells without cells as 0% background control. Incubate the cell plate in a humidified incubator at 37° C. and 5% CO2 for 5 days. After 5 days, take out the cell plate, centrifuge (1000 rpm) for 5 minutes, remove and discard 100 μL supernatant, add 100 μL CTG reagent (Promega, Cat #G7572) to each well, shake at room temperature for 10 minutes to promote cell lysis, and incubate at room temperature for 30 minutes to stabilize the luminescence signal. Use a microplate reader (Molecular Device, i3X) to read the Luminescent fluorescence value, use GraphPad Prism 5.0 software to analyze the original data, use nonlinear S-curve regression to fit the data to obtain the dose-effect curve (cell survival rate %), and calculate the IC50 value.

HPK1, sequence (Q92918 whole entry): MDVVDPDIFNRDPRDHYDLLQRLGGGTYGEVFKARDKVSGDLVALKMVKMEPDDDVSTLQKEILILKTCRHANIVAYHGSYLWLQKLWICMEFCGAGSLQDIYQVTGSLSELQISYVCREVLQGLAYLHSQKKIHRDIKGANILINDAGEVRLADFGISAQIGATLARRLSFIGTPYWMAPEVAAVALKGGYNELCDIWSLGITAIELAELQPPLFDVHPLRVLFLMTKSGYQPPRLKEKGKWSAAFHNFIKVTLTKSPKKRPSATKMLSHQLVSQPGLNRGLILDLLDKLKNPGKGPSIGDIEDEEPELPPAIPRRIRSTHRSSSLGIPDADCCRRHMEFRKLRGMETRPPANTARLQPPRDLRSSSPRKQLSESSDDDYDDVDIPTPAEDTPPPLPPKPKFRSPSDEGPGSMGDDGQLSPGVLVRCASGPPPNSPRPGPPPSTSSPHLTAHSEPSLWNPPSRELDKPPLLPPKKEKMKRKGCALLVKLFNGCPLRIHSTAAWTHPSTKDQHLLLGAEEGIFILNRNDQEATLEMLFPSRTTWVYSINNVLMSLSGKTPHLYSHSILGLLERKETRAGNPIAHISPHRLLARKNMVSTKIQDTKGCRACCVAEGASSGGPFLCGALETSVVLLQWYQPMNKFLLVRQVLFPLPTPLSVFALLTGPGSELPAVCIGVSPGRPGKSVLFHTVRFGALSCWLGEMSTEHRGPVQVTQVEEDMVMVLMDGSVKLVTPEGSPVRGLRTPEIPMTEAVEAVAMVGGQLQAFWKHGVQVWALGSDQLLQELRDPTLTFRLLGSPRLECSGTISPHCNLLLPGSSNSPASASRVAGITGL

| IC50 (HPK1) [nM] | IC50 (KDR) [nM] | IC50 (MV-4-11 cells) [nM] | Structure (SMILES) | activity at 1 µM (Human Jurkat-E6-1 cells) [%] |
| --- | --- | --- | --- | --- |
| ≤ 5 | ≤ 5 | 7 | CN1CCN(c2ccc3cc2OCCOCc2cccc(F)c2-c2cc4c-3n[nH]c4cn2)CC1 [Compound 9, 16-fluoro-5-(4-methylpiperazin-1-yl)-7,10-dioxa-19,22,23-triazapentacyclo[16.5.2.1^2,6.0^12,17.0^21,24]hexacosa-1(23),2(26),3,5,12,14,16,18,20,24-decaene] | 568 |
| ≤ 5 | 5 to 50 | 32 | CN1CCN(c2ncc3cc2OCCCOc2cccc(F)c2-c2cc4c-3n[nH]c4cn2)CC1 [Compound 3, 16-fluoro-5-(4-methylpiperazin-1-yl)-7,11-dioxa-4,19,22,23-tetraazapentacyclo[16.5.2.1^2,6.0^12,17.0^21,24]hexacosa-1(23),2(26),3,5,12,14,16,18,20,24-decaene] | 823 |
| ≤ 5 | ≤ 5 | 3.8 | CN1CCN(c2ccc3cc2OCCCOc2cccc(F)c2-c2cc4c-3n[nH]c4cn2)CC1 [Compound 6, 16-fluoro-5-(4-methylpiperazin-1-yl)-7,11-dioxa-19,22,23-triazapentacyclo[16.5.2.1^2,6.0^12,17.0^21,24]hexacosa-1(23),2(26),3,5,12,14,16,18,20,24-decaene] | 542 |
